Our source for the TGI and GI50 values is PubChem BioAssay (NCI).

Among the test systems are NCI-H522 lung; OVCAR-4 ovarian; RXF 393 renal; SF-295 CNS; SF-539 CNS; SK-MEL-2 melanoma; SK-MEL-28 melanoma; SN12C renal; SW-620 colon.
Common to all, as to experiment: NCI-60 cell line screen, 48 h

Structures are written as SMILES.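 In this assay, cells in 96-well plates receive the compound at five concentrations for 48 hours. Endpoints are linearly interpolated between the surrounding concentrations. GI50 = concentration required for 50% inhibition of growth. TGI marks complete inhibition of growth.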 Bounds are passed on as bounds.

Take `COC(=O)/C(=N\NC(N)=S)C(C(=O)OC)C(=O)C(=O)Nc1ccc(C)cc1` (centres undefined): the TGI with NCI-H522 lung, with OVCAR-4 ovarian, in the test with RXF 393 renal, in the test with SF-295 CNS, in the test with SF-539 CNS and in the test on SK-MEL-2 melanoma was over 100 µM throughout. The TGI in the test with SK-MEL-28 melanoma, in the test on SN12C renal and in the test on SW-620 colon was over 100 µM throughout.

Turning to `CCOC(=O)c1ccc(/C(C)=N/NC(N)=S)cc1`, the TGI in the test on OVCAR-4 ovarian, in the test with RXF 393 renal, with SF-295 CNS, with SF-539 CNS, in the test with SK-MEL-28 melanoma and in the test with SN12C renal was over 100 µM each time. This compound also displayed a TGI in the test with SW-620 colon of over 100 µM.

`COC(=O)/C(C#N)=C1\N=NNN1c1ccc(OC)cc1`: the TGI in the test on NCI-H522 lung, with RXF 393 renal, in the test with SF-295 CNS, with SF-539 CNS, in the test on SK-MEL-28 melanoma and with SN12C renal was over 100 µM in each case. The compound further had a TGI in the test on SW-620 colon of over 100 µM.

In the case of `O=[N+]([O-])c1ccc2occ3c2c1CCC3`, the TGI with NCI-H522 lung, in the test on OVCAR-4 ovarian, in the test on RXF 393 renal, with SF-295 CNS, in the test on SF-539 CNS and in the test with SK-MEL-2 melanoma was over 100 µM each time. Further, the TGI with SK-MEL-28 melanoma, with SN12C renal and with SW-620 colon was over 100 µM throughout.

`O=C(Nc1cccc(Cl)c1)C(=O)C(C(=O)c1ccc2ccccc2c1)C1OC(=O)c2ccccc21` (centres undefined): the TGI with OVCAR-4 ovarian is 33 µM; in the test with SK-MEL-2 melanoma it was 32.5 µM; in the test on SK-MEL-28 melanoma, 25.8 µM; in the test with SN12C renal, 51 µM; in the test on SW-620 colon, 80.9 µM.

Regarding `O=C(OC1CCC(=C2SCCCS2)[C@H]1C1SCCCS1)c1ccccc1` (some centres undefined), the TGI in the test with OVCAR-4 ovarian, with RXF 393 renal, in the test with SF-295 CNS, in the test on SF-539 CNS, in the test on SK-MEL-2 melanoma and in the test with SN12C renal was over 100 µM throughout. In addition, in the test on SW-620 colon, the TGI is over 100 µM.

On to `Cc1nc(Nc2ccc(Cl)cc2)sc1C(=O)NNC(=S)NN`, for which the TGI in the test with NCI-H522 lung was 34.8 µM; with OVCAR-4 ovarian, 32.7 µM; in the test with RXF 393 renal it was 27.6 µM; in the test on SF-295 CNS, 34.1 µM; in the test on SF-539 CNS, 31.8 µM; in the test on SK-MEL-2 melanoma it was 33.4 µM. Besides, the TGI came to 35 µM with SK-MEL-28 melanoma, 34.3 µM with SN12C renal and 38.1 µM with SW-620 colon.

With `CCCCCCCCCCCCCCCC(=O)OCCOCCOCCOCc1ccccc1`, the TGI in the test on OVCAR-4 ovarian is over 100 µM; in the test on RXF 393 renal it was over 100 µM; in the test on SF-295 CNS it was 98.4 µM; in the test on SF-539 CNS, over 100 µM; in the test on SK-MEL-2 melanoma it was over 100 µM; in the test on SK-MEL-28 melanoma, over 100 µM. In addition, the TGI with SN12C renal and with SW-620 colon was over 100 µM each time.

`CC(C)(C)c1cc(C(P(=O)(O)O)P(=O)(O)O)cc(C(C)(C)C)c1O`: the TGI with NCI-H522 lung, in the test on OVCAR-4 ovarian, with SF-295 CNS, in the test on SF-539 CNS, in the test with SK-MEL-2 melanoma and in the test with SK-MEL-28 melanoma was over 100 µM each time. For the same compound, in the test on SW-620 colon, the TGI was over 100 µM.

On to `CC1(C)COC(c2cccc3c2C(=O)c2cccc(Cl)c2-3)=N1`, for which the TGI with NCI-H522 lung was over 100 µM; in the test with OVCAR-4 ovarian it was over 100 µM; with RXF 393 renal, 68.2 µM; with SF-295 CNS, over 100 µM; in the test on SF-539 CNS, over 100 µM; in the test with SK-MEL-2 melanoma, over 100 µM. Besides, the TGI with SK-MEL-28 melanoma, in the test on SN12C renal and in the test on SW-620 colon was over 100 µM throughout.

Turning to `COc1ccc(OCC(=O)O)c2c1CCCC2=O`, the TGI in the test on NCI-H522 lung, with OVCAR-4 ovarian, in the test on RXF 393 renal, in the test on SF-295 CNS, in the test on SF-539 CNS and with SK-MEL-2 melanoma was over 100 µM each time. Further, the TGI in the test on SK-MEL-28 melanoma, with SN12C renal and in the test on SW-620 colon was over 100 µM in each case.

Take `COC(=O)C1CCCC2(C1)OCCO2` (centres undefined): the TGI in the test with NCI-H522 lung, in the test with OVCAR-4 ovarian, with RXF 393 renal, in the test with SF-295 CNS, in the test with SF-539 CNS and with SK-MEL-2 melanoma was over 100 µM each time. Besides, the TGI in the test on SK-MEL-28 melanoma, in the test with SN12C renal and in the test with SW-620 colon was over 100 µM in each case.

As for `COc1ccc(CCN(C)C2CCC(C#N)(c3ccc(OC)c(OC)c3)CC2)cc1OC` (centres undefined), the TGI with OVCAR-4 ovarian, with RXF 393 renal, in the test on SF-295 CNS, in the test on SF-539 CNS, in the test with SK-MEL-2 melanoma and in the test with SK-MEL-28 melanoma was over 100 µM in each case. The TGI with SN12C renal and with SW-620 colon was over 100 µM in each case.

Turning to `COc1cnc2c(c1)C(=O)c1c-2n(CCCNC2=NCCS2)c(=O)c2cc([N+](=O)[O-])ccc12`, the GI50 is 0.482 µM with OVCAR-4 ovarian, 0.0132 µM with SF-295 CNS, 0.0359 µM with SF-539 CNS and 0.0139 µM in the test on SW-620 colon. Moreover, the TGI with OVCAR-4 ovarian was found to be 2.58 µM; with SF-295 CNS it was 0.265 µM; in the test on SF-539 CNS it was 1.05 µM; in the test with SW-620 colon, 1.84 µM.

Take `C=CCCCCC1CCC2CCC(CCCCC=C)N12` (centres undefined): the TGI in the test on NCI-H522 lung turned out to be 28.3 µM; in the test on OVCAR-4 ovarian it was 26.3 µM; in the test with SF-295 CNS, 26.4 µM; in the test on SF-539 CNS, 30.6 µM; in the test with SK-MEL-2 melanoma it was 22.9 µM; in the test with SK-MEL-28 melanoma, 32.2 µM. Moreover, the TGI was found to be 29.9 µM with SN12C renal and 32.9 µM in the test on SW-620 colon.

In the case of `Cc1ccc2nc(/C(=C/c3ccc(/C=C(\NC(=O)c4ccccc4)c4nc5ccc(C)cc5[nH]4)c(C)c3)NC(=O)c3ccccc3)[nH]c2c1`, the TGI in the test on NCI-H522 lung was 42.6 µM; in the test with SF-539 CNS, 28.9 µM; with SK-MEL-2 melanoma, 33.3 µM; with SK-MEL-28 melanoma, 44.1 µM; in the test with SN12C renal, 30.1 µM; in the test with SW-620 colon, over 100 µM.

On to `CC(C)C1=Cc2ccc3c(c2C(=O)C1=O)CCCC3(C)C`, for which the TGI in the test with NCI-H522 lung came out at 3.39 µM; in the test on OVCAR-4 ovarian it was 3.48 µM; in the test with RXF 393 renal it was 3.86 µM; with SF-295 CNS, 31 µM; with SF-539 CNS it was 11 µM; in the test with SK-MEL-2 melanoma it was 34.6 µM. Besides, the TGI with SK-MEL-28 melanoma amounted to 13.1 µM; in the test on SN12C renal it was 13.9 µM; in the test on SW-620 colon, 10.2 µM.
